Laboratory results taken from patent publication US4748175A, “Pyrimido[5,4-B][1,4]oxazine derivatives and pharmaceutical compositions containing them” (priority 1985, dated 1988).
Where a name gives a salt, the structure may show the parent alone. Read-outs that look alike come from different tables or passages of the source.

Columns and labels:
patients = conditions: cited from earlier work
[1] = tested on: open-chest, anaesthetized cats; experiment: MCF-increasing effect in open-chest, anaesthetized cats (strain gauge arch on left ventricle); type: in vivo, cat; conditions: for change in vivo at 5 mg/kg: Felis catus, iv, 5 mg/kg i.v., open-chest anaesthetized cats, read-out: Increase in MCF as % of the initial value
Method: (A) Investigation on anaesthetized cats
The animals were intravenously (i.v.) anaesthetized by 30 mg/kg of pentobarbital-sodium. After arranging the artificial respiration, the chest and pericardium were opened. A strain gauge arch was sutured onto the epicardial surface of the left ventricle [J. Pharm. Exp. Ther. 90, 26 (1947)]. The blood pressure was measured by a catheter inserted to the femoral artery and joined to a P 23 Db pressure transducer and electromanometer. The test compounds were administered either i.v. through a femoral vein cannule, or intraduodenally (i.d.) through the duodenum cannule. At the beginning of the experiment, 0.2 μg/kg of isoproterenol (IS) was i.v. given as an internal standard for checking the myocardial reactivity. Namely, the value of the peak MCF response can also be altered according to the individual animals in the case of each positive inotropic agent. Thus, IS was not used as a real reference drug.
The MCF responses were expressed in the percentage changes of the initial value: the effect on MCF of 5 mg/kg i.v. of the test compound was compared to that of 0.2 μg/kg i.v. of IS.

[2] = Acute toxicity (LD50) in mice; conditions: mouse, in vivo
Excerpt: (§1) The acute toxicity data of compound 22 are given as LD50 values in Table 2.

[3] = Acute toxicity (LD50) in rats; conditions: rat, in vivo
Excerpt: as §1

Ca-ATP-ase = Ca-ATP-ase activity ex vivo after 5 days i.p. treatment; type: in vivo; conditions: 2 mg/kg i.p. daily for 5 days; corrected to 1 g of heart tissue
Method: The activity of this enzyme was measured according to Mc Namara [J. Biochem. 75, 795 (1974)].
In another experiment, compound 22 was given in a 2 mg/kg i.p. daily dose for 5 days. After taking an ex vivo sample, the enzyme activity was found as decreased by 30% (as corrected to 1 g of heart tissue).

conscious cats = experiment: Investigation on chronically catheterized conscious cats; type: in vivo, cat; conditions: oral 0.5 to 8.0 mg/kg
Excerpt: (C) Investigation on conscious cats
These animals were used according to either the method of Rabloczky and Mader ("Measurement of Systemic and Pulmonary Arterial Pressure in Conscious Animals", lecture on Congress of the International Union of Pharmacologists, Budapest, 1980) or to some modification thereof. The aorta and pulmonary artery were chronically catheterized for measuring both blood pressures. In the modification, the right ventricle was also catheterized for determining the dp/dtmax value.

[4] = tested on: anaesthetized open-chest dogs; experiment: Investigation on anaesthetized open-chest dogs (MCF, coronary flow, blood pressure, heart rate); type: in vivo, dog
Method: (B) Investigation on anaesthetized dogs
The animals were i.v. anaesthetized by 35 mg/kg of pentobarbital-sodium. After opening the chest and pericardium, the lower ascending part of the left circumflex coronary artery was prepared and fitted with an electromagnetic flow probe for measuring the blood flow in the coronary artery. A strain gauge arch was placed onto the area supplied by this coronary artery for measuring the MCF. For determining the systemic blood pressure a femoral arterial cannule, for i.v. drug administration a femoral venous cannule was used. The dp/dt value was calculated from the pressure measured by a Millar type pressure transducer introduced to the left ventricle. All parameters were registered on a Beckman R 12 8-channel dynograph.

Na-K-ATP-ase = molecular target: T1, Na-K-ATP-ase (Homo sapiens, UniProt P05023); experiment: Na-K-ATP-ase activity in sarcolemma preparations; type: biochemical; conditions: 10^-7 M, 50 mM Tris-HCl pH 7.5
T1 construct: Sarcolemma preparations were made according to D. M. Bers; from tissue; host or cells: sarcolemma preparation (heart, from the cited Bers 1979 method and the context)
Method: (§2) Sarcolemma preparations were made according to D. M. Bers [Biochem. Biophys. Acta 555, 131 (1979)]. NADH-dichlorophenol-reductase was determined by using a Centrifi-CHEM® enzyme-analyzer. The activity of Na-K-ATP-ase was measured in 50 mM Tris-HCl (at pH 7.5). […] The activity of these enzymes was not altered by even a 10^-4 M concentration of compound 22.

[5] = tested on: NADH-dichlorophenol-reductase; experiment: NADH-dichlorophenol-reductase (NADH oxydase) activity in sarcolemma preparations; type: biochemical; conditions: 10^-7 M
Method: as §2

[6] = tested on: ^45 Ca^2+ uptake into the sarcoplasma reticulum; experiment: 45Ca2+ uptake into the sarcoplasma reticulum in the presence of ATP; type: biochemical; conditions: 10^-2 M
Excerpt: EFFECT OF COMPOUND 22 ON THE ^45 Ca^2+ UPTAKE INTO THE SARCOPLASMA RETICULUM IN THE PRESENCE OF ATP
The method of S. Harigaya [Circ. Res. 25, 761 (1969)] was used.

[7] = patients suffering from chronic heart failure

1-(4-hydroxyphenyl)-3-tertiary-butylamino-2-propanol [Prenalterol]
cardiac performance (patients; chronic oral treatment): not improved | effect in acute cardiac insufficiency (patients; given intravenously, clinics): very effective

Cc1nc2c(c(N(CCO)Cc3ccccc3)n1)OCC(=O)N2 [Example 11]
change in vivo at 5 mg/kg [1]: 83%

Cc1nc(NCCN2CCOCC2)c2c(n1)NC(=O)CO2 [Example 22, 2-Methyl-4-[2-(4-morpholinyl)-ethyl]-amino-6,7-dihydro-8H-pyrimido[5,4-b][1,4]oxazin-7-one dihydrochloride]
LD50 ([2]; ip, Female): 573 mg/kg | LD50 ([2]; ip, Male): 572 mg/kg | LD50 ([2]; iv, Female): 340 mg/kg | LD50 ([2]; iv, Male): 324 mg/kg | LD50 ([2]; po, Female): 1420 mg/kg | LD50 ([2]; po, Male): 1360 mg/kg | LD50 ([3]; ip, Female): 260 mg/kg | LD50 ([3]; ip, Male): 315 mg/kg | LD50 ([3]; iv, Female): 232 mg/kg | LD50 ([3]; iv, Male): 253 mg/kg | LD50 ([3]; po, Female): 810 mg/kg | LD50 ([3]; po, Male): 830 mg/kg | Ca-ATP-ase enzyme activity decrease, ex vivo sample (Ca-ATP-ase): 30% | change in vivo at 5 mg/kg [1]: 70% | peak increase in dp/dtmax (conscious cats): about 60% | MCF increase ([4]; 1 mg/kg i.d.): 35 to 40% | MCF effect relative to amrinone ([4]; i.d. administration): at least 5 times

Cc1nc(NCC2CN(Cc3ccccc3)CCO2)c2c(n1)NC(=O)CO2 (stereo not drawn) [Example 27, 4-[(4-Benzyl-2-morpholinyl)-methyl]-amino-2-methyl-6,7-dihydro-8H-pyrimido[5,4-b][1,4]oxazin-7-one dihydrochloride dihydrate]
change in vivo at 5 mg/kg [1]: 130% | MCF increase ([4]; 1 mg/kg i.v., dogs): 40% | coronary flow increase ([4]; 1 mg/kg i.v., dogs): 20% | decrease in diastolic pressure ([4]; 1 mg/kg i.v., dogs): 20% | decrease in the systemic systolic arterial blood pressure ([4]; 1 mg/kg i.v., dogs): 10% | duration of the coronary response ([4]; 1 mg/kg i.v., dogs): 20 min | half-life of the MCF effect ([4]; 1 mg/kg i.v., dogs): 10 min | heart rate increase (tachycardia) ([4]; 1 mg/kg i.v., dogs): 10% | MCF increase ([4]; 5 mg/kg i.d., dogs): 30% | duration of the MCF increase ([4]; 5 mg/kg i.d., dogs): 30 min

CC(=O)CN1C(=O)COc2c(NCCO)nc(C)nc21 [Example 29, 4-(2-Hydroxyethyl)-amino-2-methyl-8-(2-oxopropyl)-6,7-dihydro-8H-pyrimido[5,4-b][1,4]oxazine-7-one]
change in vivo at 5 mg/kg [1]: 40%

CCOC(=O)CN1C(=O)COc2c(NCCO)nc(C)nc21 [Example 37]
change in vivo at 5 mg/kg [1]: 55.5% | positive inotropic action after i.d. administration ([1]; i.d., dose of both 20 mg/kg and 5 mg/kg): strong positive inotropic action | MCF increase ([4]; 0.5 mg/kg i.v., dogs): 56% | coronary flow increase ([4]; 0.5 mg/kg i.v., dogs): 34% | decrease in the systemic arterial blood pressure ([4]; 0.5 mg/kg i.v., dogs): 10 to 15% | tachycardia ([4]; 0.5 mg/kg i.v., dogs): 6 to 7% | MCF increase ([4]; 1 mg/kg i.v., dogs): 46% | coronary flow increase ([4]; 1 mg/kg i.v., dogs): 20% | duration of the coronary response ([4]; 1 mg/kg i.v., dogs): 10 min | heart rate increase (tachycardia) ([4]; 1 mg/kg i.v., dogs): 13% | decrease in the systemic arterial blood pressure ([4]; 1.0 mg/kg i.v., dogs): 20% | duration of the MCF increase ([4]; 1.0 mg/kg i.v., dogs): 10 min | duration of the heart rate increase ([4]; 1.0 mg/kg i.v., dogs): 5 min | MCF increase ([4]; 5 mg/kg i.d., dogs): about 30% | duration of the MCF increase ([4]; 5 mg/kg i.d., dogs): 60 min

Cc1nc(Cl)c2c(n1)N(CC(O)CO)C(=O)CO2 (stereo not drawn) [Example 56]
change in vivo at 5 mg/kg [1]: 100%

Cc1nc(N2CCOCC2)c2c(n1)N(CC(O)CO)C(=O)CO2 (stereo not drawn) [Example 57, 8-(2,3-Dihydroxypropyl)-2-methyl-4-(4-morpholinyl)-6,7-dihydro-8H-pyrimido[5,4-b][1,4]oxazin-7-one]
change in vivo at 5 mg/kg [1]: 45%

Cc1nc(NCCCN2CCOCC2)c2c(n1)NC(=O)CO2 [Example 60, 2-Methyl-4-[3-(4-morpholinyl)-1-propyl]-amino-6,7-dihydro-8H-pyrimido[5,4-b][1,4]oxazin-7-one]
change in vivo at 5 mg/kg [1]: 51%

Cc1nc(NCCO)c2c(n1)N(CC(=O)N1CCOCC1)C(=O)CO2 [Example 66, 4-(2-Hydroxyethyl)-amino-2-methyl-8-(4-morpholinylcarbonyl)-methyl-6,7-dihydro-8H-pyrimido[5,4-b][1,4]oxazin-7-one]
change in vivo at 5 mg/kg [1]: 58.3%

CCCCOC(=O)CN1C(=O)COc2c(NCCO)nc(C)nc21 [Example 67, 8-(n-Butoxycarbonyl)methyl-4-(2-hydrocyethyl)amino-2-methyl-6,7-dihydro-8H-pyrimido[5,4-b][1,4]oxazin-7-one hydrochloride]
change in vivo at 5 mg/kg [1]: 37%

Cc1nc(NCCO)c2c(n1)N(Cc1ccccc1)C(=O)CO2 [Example 69, 8-Benzyl-2-methyl-4-(2-hydroxyethyl)-amino-2-methyl-6,7-dihydro-8H-pyrimidino[5,4-b][1,4]oxazin-7-one]
change in vivo at 5 mg/kg [1]: 66%

CCOC(=O)CN1C(=O)COc2c(N)nc(C)nc21 [Example 73]
change in vivo at 5 mg/kg [1]: 50%

CC(C)NCC(O)c1ccc(O)c(O)c1 (stereo not drawn) [IS, isoproterenol, reference compound]
blood circulation parameters ([1]; 0.2 μg/kg i.v., cats): did not influence | MCF response ([1]; 0.2 μg/kg i.v., internal standard, cats): short-lasting and completely reversible

C[C@@H]1O[C@@H](O[C@H]2C[C@@H](O)[C@]3(CO)[C@H]4[C@H](O)C[C@]5(C)[C@@H](C6=CC(=O)OC6)CC[C@]5(O)[C@@H]4CC[C@]3(O)C2)[C@H](O)[C@H](O)[C@H]1O [Ouabain]
Na-K-ATP-ase activity (Na-K-ATP-ase): strongly inhibited | indophenol-reductase inhibition [5]: slightly

CC(C)(C)NCC(O)c1ccc(O)c(CO)n1 (stereo not drawn) [Pirbuterol, 1-(5-hydroxy-6-hydroxymethyl-2-pyridyl)-2-tertiary-butylaminoethanol]
observation after a longer period of oral treatment (patients; longer period): addiction was observed | effect during oral treatment (patients; oral treatment for some weeks): favorable effect

COc1cc([S+](C)[O-])ccc1-c1nc2ncccc2[nH]1 (stereo not drawn) [Sulmazole, 2-(2-methoxy-4-methylsulfinylphenyl)-1H-imidazo[4,5-b]pyridine]
side-effects (patients; clinical tests): relatively frequent side-effects

Nc1cc(-c2ccncc2)c[nH]c1=O [amrinone, 5-amino-(3,4'-bipyridin)-6(1H)-one]
cardiac output (patients; [7]): significantly increased | resistance of the peripheral vessels (patients; [7]): diminished | side-effects (patients; therapeutic use): severe side-effects appearing in the blood picture | positive inotropic action compared with compound 22 ([4]; 2 mg/kg i.v. amrinone versus 0.4 mg/kg i.v. compound 22, dogs): not more effective than that of 0.4 mg/kg of compound 22 | positive inotropic action after an acute myocardial ischaemia ([4]; anaesthetized open-chest dogs): significantly decreased

Cn1c(=O)c2c(ncn2C)n(C)c1=O [caffeine]
inhibition of Ca-uptake [6]: ~25%
